Columns and labels:
THP-1 cells = assay: Confocal fluorescence microscopy and Red-MitoTracker co-localization; assay type: cell-based, human; details: 10 μM, 24 h
Method: Thus, compounds 11a and 14 were subsequently examined in the context of living cells to determine whether they retained their fluorescence profile after entry into target cells. First, both compounds were incubated for 24 h with THP-1 cells at a concentration of 10 μM. After washing with PBS buffer, cells were analyzed under confocal microscopy using an appropriate laser stimulation (λex: 405 nm, λem: […]) to excite the molecules.
(§1) Co-localization experiments were performed to examine whether compound 11a may reach the cellular compartment where hDHODH is located. For this, a specific mitochondrial stain marker in the two cell lines in which the biological activities of 11a were observed, namely THP-1 and HCT-8 cells, was used. The compound was therefore incubated with THP-1 cells (Figure ) or HTC-8 cells (Figure ) at 37 °C for 24 h. Then, cells were stained with Red-MitoTracker (a specific fluorescent probe for mitochondrial targeting) for 30 min at 37 °C.
(§2) For fluorescence analysis, 10 μM of target compounds were incubated with THP-1 for 24 h. After washing the cells with a PBS buffer solution, they were analyzed under confocal microscopy imaging technique using the appropriate laser to excite the molecule. For the colocalization experiments, HCT-8 cells (55,000 cells/well) were plated on μ-Slide 8 well high glass bottom (IBIDI, Gräfelfing, Germany) and treated for 24 h with 10 μM of 11a at 37 °C. Then, cells were stained with MitoTracker Red CMXRos (ThermoFischer, Carlsbad, CA, USA) (1:4000) for 30′ at 37 °C and after washing with PBS buffer solution, cells were visualized with a Leica TCS SP5 multiphoton-inverted confocal microscope equipped with LAS AF matrix software. Live cells were imaged using an HCX PL APO 63×/1.4 NA oil immersion objective. Images were collected with excitation of ligand 11a at λex = 405 nm and emission at λem = 500 nm, Red-MitoTracker at λex = 581 nm and emission at λem = 605 nm.

HCT-8 cells = assay: Confocal Red-MitoTracker co-localization; assay type: cell-based, human; details: 10 μM, 24 h
Method: as §1
as §2, with “Images were collected with excitation of ligand 11a at λex = 405 nm and emission at λem = 500 nm, Red-MitoTracker at λex = 581 nm and emission at λem = 605 nm.” left out

## Oc1nn2ccccc2c1/C=C/c1c(F)c(F)c(-c2ccccc2)c(F)c1F [Compound 11a, (E)-3-(2-(2,3,5,6-Tetrafluoro-[1,1’-biphenyl]-4-yl)vinyl)pyrazolo[1,5-a]pyridin-2-ol]
THP-1 cells; THP-1
  intracellular localization: localize in the cytosol
THP-1 cells; THP-1, λex 405 nm
  fluorescence in living cells: recovered a strong fluorescence
THP-1 cells; THP-1 cells
  co-localization with Red-MitoTracker: localize into mitochondria
HCT-8 cells
  co-localization with Red-MitoTracker: localize into mitochondria

Reference: article PMC12257544, “Fluorescent Isostere (Fluostere) of the Carboxylate: Design of hDHODH Fluorescent Inhibitors as Proof of Concept” (Journal of Medicinal Chemistry, 2025)
